Measurements as given in US20180201592A1, “2-AMINO-1,3,4-THIADIAZINE AND 2-AMINO-1,3,4-OXADIAZINE BASED ANTIFUNGAL AGENTS” (F2G Limited, priority 2015, published 2018).

Assays:
Settings in all cases: banded MIC grade
[1] = test system: Aspergillus fumigatus; assay: Minimum inhibitory concentration, YAG medium; type: cell-based
Procedure, shortened: (§1)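 Testing uses spores harvested after 5 days on Sabouraud agar, grown 24 hrs at 35° C in glucose/ammonium chloride/yeast extract (YAG) medium against twofold drug dilutions. Optical density at 485 nm defines MIC as >70% growth reduction compared with drug-free wells.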

[2] = test system: A. terreus 49; assay: Minimum inhibitory concentration, YAG medium; type: cell-based, Aspergillus terreus
Procedure, shortened: (§2)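 Growth inhibition was read as absorbance at 485 nm after spores of Aspergillus spp. were exposed for 24 hrs at 35° C to doubling dilutions of the compound. Dilutions were made in water starting from a 5 mg/mL DMSO stock, and MIC values were expressed in mg/L.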

[3] = test system: A. fumigatus 210; assay: Minimum inhibitory concentration, YAG medium; type: cell-based, Aspergillus fumigatus
Procedure, shortened: as §1

[4] = test system: A. fumigatus; assay: Minimum inhibitory concentration, RPMI medium; type: cell-based
Procedure, shortened: (§3)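 Broth microdilution in RPMI 1640 (2% glucose, 0.135 M MOPS, pH 7.0) at 1-2×10^4 cfu/mL, testing 50-0.05 mg/L in doubling steps. After 24-48 hrs at 35° C, OD at 485 nm was read, and the MIC was taken as the lowest drug level suppressing growth by >80% relative to drug-free wells.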

[5] = test system: A. fumigatus 210; assay: Minimum inhibitory concentration, RPMI medium; type: cell-based
Procedure, shortened: as §3

[6] = test system: Aspergillus niger; assay: Minimum inhibitory concentration, YAG medium; type: cell-based
Procedure, shortened: as §2

[7] = test system: Aspergillus flavus; assay: Minimum inhibitory concentration, YAG medium; type: cell-based
Procedure, shortened: as §2

[8] = test system: Aspergillus terreus; assay: Minimum inhibitory concentration, YAG medium; type: cell-based
Procedure, shortened: as §2

[9] = test system: C. glabrata; assay: Minimum inhibitory concentration, RPMI medium; type: cell-based
Procedure, shortened: (§4)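 Growth inhibition was judged from optical density at 485 nm per well after 24-48 hrs at 35° C. Test compound came from a 5 mg/mL DMSO stock, serially doubled in water before testing in RPMI 1640.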

[10] = test system: A. niger; assay: Minimum inhibitory concentration, RPMI medium; type: cell-based
Procedure, shortened: as §4

[11] = test system: C. krusei; assay: Minimum inhibitory concentration, RPMI medium; type: cell-based
Procedure, shortened: as §4

[12] = test system: A. terreus 49; assay: Minimum inhibitory concentration, RPMI medium; type: cell-based
Procedure, shortened: as §4

[13] = test system: A. terreus; assay: Minimum inhibitory concentration, RPMI medium; type: cell-based
Procedure, shortened: as §4

[14] = test system: C. tropicalis; assay: Minimum inhibitory concentration, RPMI medium; type: cell-based
Procedure, shortened: as §4

[15] = test system: A. flavus; assay: Minimum inhibitory concentration, RPMI medium; type: cell-based
Procedure, shortened: as §4

[16] = test system: C. albicans; assay: Minimum inhibitory concentration, RPMI medium; type: cell-based
Procedure, shortened: as §4

[17] = test system: C. parapsilosis; assay: Minimum inhibitory concentration, RPMI medium; type: cell-based
Procedure, shortened: as §4

Structure (SMILES) | MIC grade, A. FUMIGATUS, YAG media [1] | MIC grade, A. TERREUS 49, YAG media [2] | MIC grade, A. FUMIGATUS 210, YAG media [3] | MIC grade, A. FUMIGATUS, RPMI media [4] | MIC grade, A. FUMIGATUS 210, RPMI media [5] | MIC grade, A. NIGER, YAG media [6] | MIC grade, A. FLAVUS, YAG media [7] | MIC grade, A. TERREUS, YAG media [8] | MIC grade, C. GLABRATA, RPMI media [9] | MIC grade, A. NIGER, RPMI media [10] | MIC grade, C. KRUSEI, RPMI media [11] | MIC grade, A. TERREUS 49, RPMI media [12] | MIC grade, A. TERREUS, RPMI media [13] | MIC grade, C. TROPICALIS, RPMI media [14] | MIC grade, A. FLAVUS, RPMI media [15] | MIC grade, C. ALBICANS, RPMI media [16] | MIC grade, C. PARAPSILOSIS, RPMI media [17]
CCc1ccc(OCCCCC2=NN=C(N)SC2)cc1 | 3 (3: 0.2-1 mg/L) | 4 (4: <0.2 mg/L) | 3 (3: 0.2-1 mg/L) | 2 (2: 5-20 mg/L) | 2 (2: 5-20 mg/L) | 3 (3: 0.2-1 mg/L) | 4 (4: <0.2 mg/L) | 4 (4: <0.2 mg/L) | 2 (2: 5-20 mg/L) | 2 (2: 5-20 mg/L) | 4 (4: <1 mg/L) | 2 (2: 5-20 mg/L) | 3 (3: 1-5 mg/L) | 4 (4: <1 mg/L) | 2 (2: 5-20 mg/L) | 4 (4: <1 mg/L) | 4 (4: <1 mg/L)
NC1=NN=C(CCCCOCc2ccc(C(F)(F)F)cc2)CS1 | 4 (4: <0.2 mg/L) | 4 (4: <0.2 mg/L) | 4 (4: <0.2 mg/L) | 2 (2: 5-20 mg/L) | 2 (2: 5-20 mg/L) | 4 (4: <0.2 mg/L) | 4 (4: <0.2 mg/L) | 4 (4: <0.2 mg/L) | 2 (2: 5-20 mg/L) | 3 (3: 1-5 mg/L) | 4 (4: <1 mg/L) | 2 (2: 5-20 mg/L) | 3 (3: 1-5 mg/L) | 4 (4: <1 mg/L) | 3 (3: 1-5 mg/L) | 4 (4: <1 mg/L) | 4 (4: <1 mg/L)
CCCCc1ccc(COCCCCC2=NN=C(N)SC2)cc1 | 1 (1: ≥5 mg/L) | 2 (2: 1-5 mg/L) | 1 (1: ≥5 mg/L) | 1 (1: ≥20 mg/L) | 1 (1: ≥20 mg/L) | 3 (3: 0.2-1 mg/L) | 3 (3: 0.2-1 mg/L) | 2 (2: 1-5 mg/L) | 2 (2: 5-20 mg/L) | 2 (2: 5-20 mg/L) | 3 (3: 1-5 mg/L) | 1 (1: ≥20 mg/L) | 1 (1: ≥20 mg/L) | 2 (2: 5-20 mg/L) | 2 (2: 5-20 mg/L) | 2 (2: 5-20 mg/L) | 3 (3: 1-5 mg/L)
NC1=NN=C(CCCCOCc2ccc(Cl)cc2)CS1 | 4 (4: <0.2 mg/L) | 4 (4: <0.2 mg/L) | 4 (4: <0.2 mg/L) | 3 (3: 1-5 mg/L) | 2 (2: 5-20 mg/L) | 4 (4: <0.2 mg/L) | 4 (4: <0.2 mg/L) | 4 (4: <0.2 mg/L) | 3 (3: 1-5 mg/L) | 3 (3: 1-5 mg/L) | 4 (4: <1 mg/L) | 3 (3: 1-5 mg/L) | 3 (3: 1-5 mg/L) | 3 (3: 1-5 mg/L) | 4 (4: <1 mg/L) | 4 (4: <1 mg/L) | 4 (4: <1 mg/L)
NC1=NN=C(CCCCCOc2ccccn2)CS1 | 4 (4: <0.2 mg/L) | 4 (4: <0.2 mg/L) | 4 (4: <0.2 mg/L) | 4 (4: <1 mg/L) | 3 (3: 1-5 mg/L) | 4 (4: <0.2 mg/L) | 4 (4: <0.2 mg/L) | 4 (4: <0.2 mg/L) | 3 (3: 1-5 mg/L) | 4 (4: <1 mg/L) | 4 (4: <1 mg/L) | 4 (4: <1 mg/L) | 4 (4: <1 mg/L) | 4 (4: <1 mg/L) | 4 (4: <1 mg/L) | 4 (4: <1 mg/L) | 4 (4: <1 mg/L)
